The text below walks through data of patent publication US10640457B2, “Histone acetyltransferase activators and uses thereof” (The Trustees of Columbia University in the City of New York, priority 2009, dated 2020).

For series [1] the following is noted: literature [22, 23]; cited from earlier work.
The conditions of series [2]: literature [22, 23]; cited from earlier work. The source holds these as a separate data set.
A short description of another series: Solubility observations. Type of series: physicochemical.
Another series concerns the target T1, Sirtuin 2 (Homo sapiens, UniProt Q8IXJ6).
T1 sequence (Q8IXJ6 1-389): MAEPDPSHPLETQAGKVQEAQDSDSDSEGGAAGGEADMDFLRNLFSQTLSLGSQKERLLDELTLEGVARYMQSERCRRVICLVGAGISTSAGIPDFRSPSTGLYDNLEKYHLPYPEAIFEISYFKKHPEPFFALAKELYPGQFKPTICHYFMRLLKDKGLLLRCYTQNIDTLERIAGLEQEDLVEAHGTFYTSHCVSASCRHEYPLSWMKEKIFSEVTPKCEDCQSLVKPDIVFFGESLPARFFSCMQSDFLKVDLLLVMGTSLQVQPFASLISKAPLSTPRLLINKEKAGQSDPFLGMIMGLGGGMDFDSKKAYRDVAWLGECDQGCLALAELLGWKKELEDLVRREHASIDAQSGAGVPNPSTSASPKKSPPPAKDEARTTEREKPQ
The experiment in a line: Sirtuin 2 fluorogenic activity assay.

The target in another series is T2, Sirtuin 1 (Homo sapiens, UniProt Q96EB6).
T2 sequence (Q96EB6 1-747): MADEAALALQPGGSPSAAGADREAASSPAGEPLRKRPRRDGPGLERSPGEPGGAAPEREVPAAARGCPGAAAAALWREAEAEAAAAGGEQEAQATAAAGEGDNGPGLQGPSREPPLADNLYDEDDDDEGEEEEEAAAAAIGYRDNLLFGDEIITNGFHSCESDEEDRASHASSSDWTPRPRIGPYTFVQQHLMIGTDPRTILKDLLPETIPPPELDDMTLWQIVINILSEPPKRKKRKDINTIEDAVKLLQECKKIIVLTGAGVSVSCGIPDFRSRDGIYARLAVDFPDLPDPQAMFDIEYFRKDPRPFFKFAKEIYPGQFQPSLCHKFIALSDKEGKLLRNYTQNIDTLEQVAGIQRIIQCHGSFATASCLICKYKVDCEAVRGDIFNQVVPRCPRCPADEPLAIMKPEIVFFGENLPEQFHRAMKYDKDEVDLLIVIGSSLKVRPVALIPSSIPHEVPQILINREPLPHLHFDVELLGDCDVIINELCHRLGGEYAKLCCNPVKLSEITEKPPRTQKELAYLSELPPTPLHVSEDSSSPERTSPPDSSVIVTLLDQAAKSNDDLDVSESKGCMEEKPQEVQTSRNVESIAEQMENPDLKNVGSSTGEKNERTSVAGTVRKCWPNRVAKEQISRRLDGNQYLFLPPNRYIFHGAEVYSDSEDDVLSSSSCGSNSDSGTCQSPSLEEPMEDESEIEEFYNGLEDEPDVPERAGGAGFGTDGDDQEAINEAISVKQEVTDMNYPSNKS
As to the kind of experiment: Sirtuin 1 fluorogenic activity assay.

The conditions of series [3]: literature [P48]; cited from earlier work.

Bounds are passed on as bounds.

On to `CCOc1ccccc1C(=O)Nc1ccc(Cl)c(C(F)(F)F)c1` [6J, N-(4-chloro-3-trifluoromethyl-phenyl)-2-ethoxy-benzamide], for which the membrane permeability result in series [1] is given as “membrane-impermeable”. The solubility entry in series [2] is listed as “insoluble”. Further, the “solubility in H2O” value in “Solubility observations” was “no solubility”.
With `CCCCCCCCCCCCCCCc1cccc(OCC)c1C(=O)Nc1ccc(Cl)c(C(F)(F)F)c1` [CTPB], the membrane permeability result in series [1] is “membrane-impermeable”. For the same compound, the solubility result in series [2] is on record as “insoluble”.
`O=C(CCCCCCC(=O)Nc1ccccc1)NO` [SAHA, reference compound]: the IC50 against Sirtuin 2 and at Sirtuin 1 was > 10 µM throughout.
Regarding `Cc1cc(-c2ccccc2)nnc1NCCN1CCOCC1` [minaprine], the brain/blood ratio in series [3] is > 2.
